Data published in patent US6818639B2, “Pharmaceutical combination formulation and method of treatment with the combination” (Biovitrum AB, priority 2000, dated 2004).
Read-outs that look alike come from different tables or passages of the source.

How the values were obtained:
ob/ob mice = assay: Food intake test in ob/ob mice; assay type: in vivo
Experimental: 5-HT2C receptor agonists (2R)-methyl-1-{3-[2-(3-pyridinyloxy)ethoxy]-2-pyrazinyl}piperazine, fumarate (“PNU-183933F”) and (2R)-1-(3-{2-[(2-ethoxy-3-pyridinyl)oxy]ethoxy}-2-pyrazinyl)-2-methylpiperazine, fumarate (“BVT.2938F”) were dissolved in saline (0.9% NaCl) and diluted in the same vehicle to the appropriate concentration.
5-HT6 receptor antagonists 6-methyl-9-(phenylsulfonyl)-1,2,3,4,5,6-hexahydroazepino[4,5-b]indole, hydrochloride (“PNU-186053A”) and 1-(phenylsulfonyl)-4-(1-piperazinyl)-1H-indole, hydrochloride (5-HT6 receptor antagonist (“BVT.5182C”) were dissolved and diluted in 25% cyclodextrin.
Male mice 8-9 weeks old (C57BL/6JBom-Lep^ob (ob/ob), Bomholtsgaard, Denmark) with an average body weight of 45 g were used. The animals were housed singly in cages at 23±1° C., 40-60% humidity and had free access to water and standard laboratory chow. The 12/12 h light/dark cycle was set to lights off at 5 p.m. The animals were conditioned for at least one week before start of study. During experimental sessions, the animals obtained special chow (BioServ, Frenchtown, N.J., USA dust-free precision pellets weighing 20 mg each).
At the start of the study the animals were transferred to special cages “operant test cages” (Habitest Modular Animal Behavior Test System; Colbourn Instr, Allentown, Pa., USA). These cages consist of a feeder trough with sensors for measurement of food intake, an optic lickometer for registration of water intake and an infrared-based monitor for recording overall general motor activity. The monitors are coupled to a computer, which controls and monitor events continuously. Food pellets were weighed to the amount needed for one whole study and water bottles were filled with fresh tap water and weighed. The animals were conditioned to their new environment for three days to establish baseline values. The animals were weighed at 3 p.m. at the start and at the end of the study. The compounds were administered between 4.20 and 5.00 p.m. before dark onset. Three groups of animals received (i) 5-HT6 antagonist in 25% cyclodextrin; (ii) 5-HT2C agonist in saline; and (iii) the combination 5-HT2C agonist/5-HT6 antagonist, respectively. When combined, 5-HT6 antagonist or saline was administered 30 min before administration of the 5-HT2C agonist or 25% cyclodextrin. A fourth group received respectively vehicle administered in the same way. The study ended on the fifth day. Weighing was performed with a computer-assisted Mettler-Toledo PR5002/PR802 balance.
Each dose group consisted of 12-16 animals. […] The values were expressed as % of basal food intake (mean±SEM) for the difference between food intake before treatment and 3 h (5 pm-8 pm), 6 h (5 pm-11 pm), 12 h (5 pm-5 am), 21 h (5 pm-2 pm).

[1] = tested on: mice that express the normal 5-HT2C receptor / mutated inactive form; details: cited from earlier work
humans = details: cited from earlier work
[2] = combination BVT.2938F 5 mg/kg subcutaneously + BVT.5182C 3 mg/kg subcutaneously, at 12 and 21 hours following administration, FIG. 2
[3] = combination PNU-186053A 50 mg/kg subcutaneously + PNU-183933F 50 mg/kg per orally, FIG. 1

Cl.O=S(=O)(c1ccccc1)n1ccc2c(N3CCNCC3)cccc21 [BVT.5182C, 1-(phenylsulfonyl)-4-(1-piperazinyl)-1H-indole, hydrochloride]
food consumption (food intake), combined treatment vs compounds given alone (ob/ob mice; [2]): significantly more than the compounds given alone

C[C@@H]1CNCCN1c1nccnc1OCCOc1cccnc1.O=C(O)/C=C/C(=O)O [PNU-183933F, (2R)-methyl-1-{3-[2-(3-pyridinyloxy)ethoxy]-2-pyrazinyl}piperazine, fumarate]
food consumption (food intake), combined treatment vs compounds given alone (ob/ob mice; [3]): decreased food consumption significantly more than the compounds given alone

CCOc1ncccc1OCCOc1nccnc1N1CCNC[C@H]1C.O=C(O)/C=C/C(=O)O [BVT.2938F, (2R)-1-(3-{2-[(2-ethoxy-3-pyridinyl)oxy]ethoxy}-2-pyrazinyl)-2-methylpiperazine, fumarate]
food consumption (food intake), combined treatment vs compounds given alone (ob/ob mice; [2]): significantly more than the compounds given alone

Clc1cccc(N2CCNCC2)c1 [m-CPP, m-chlorophenylpiperazine]
food intake ([1]; mice expressing the mutated inactive form of the 5-HT2C receptor): lacks activity | food intake ([1]; mice that express the normal 5-HT2C receptor): reduces food intake | body weight (humans; two weeks of treatment): reduce body weight

Cn1c2c(c3ccccc31)CCNCC2 [U-22394A]
body weight (humans; nine weeks of treatment): reduce body weight

Cl.Cn1c2c(c3cc(S(=O)(=O)c4ccccc4)ccc31)CCNCC2 [PNU-186053A, 6-methyl-9-(phenylsulfonyl)-1,2,3,4,5,6-hexahydroazepino[4,5-b]indole, hydrochloride]
food consumption (food intake), combined treatment vs compounds given alone (ob/ob mice; [3]): decreased food consumption significantly more than the compounds given alone
